# Experimental data: publication PMC6272913, “Synthesis of Bioactive 2-(Arylamino)thiazolo[5,4-f]-quinazolin-9-ones via the Hügershoff Reaction or Cu- Catalyzed Intramolecular C-S Bond Formation” (Molecules, 2016)
# Values joined by “and” are separate entries in the source; they are usually repeats but may differ in a detail not shown here. Equal values may be shown once. Read-outs that look alike come from different tables or passages of the source.
# Key:
# [1] = target: CLK1 (Homo sapiens, UniProt P49759); test: CLK1 in vitro kinase assay (RS peptide); assay type: biochemical; conditions: 15 μM ATP, 30 min at 30 °C, triplicate; >10 = less than 50% inhibition at 10 µM
# Chain of CLK1 (P49759 whole entry): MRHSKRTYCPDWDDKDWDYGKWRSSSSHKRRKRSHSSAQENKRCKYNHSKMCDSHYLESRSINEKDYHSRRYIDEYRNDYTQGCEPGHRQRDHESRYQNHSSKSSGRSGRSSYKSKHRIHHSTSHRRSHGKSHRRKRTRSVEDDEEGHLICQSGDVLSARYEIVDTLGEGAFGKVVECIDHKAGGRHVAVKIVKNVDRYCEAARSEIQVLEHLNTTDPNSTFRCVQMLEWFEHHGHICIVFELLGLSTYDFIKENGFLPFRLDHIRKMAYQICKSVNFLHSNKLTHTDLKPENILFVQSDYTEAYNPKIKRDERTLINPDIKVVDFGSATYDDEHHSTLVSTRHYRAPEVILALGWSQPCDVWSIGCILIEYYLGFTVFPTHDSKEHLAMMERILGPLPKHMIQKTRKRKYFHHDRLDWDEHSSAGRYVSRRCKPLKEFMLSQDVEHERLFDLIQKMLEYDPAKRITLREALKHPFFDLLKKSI
# [2] = target: DYRK1A (Rattus norvegicus, UniProt Q63470); test: DYRK1A in vitro kinase assay (Woodtide); assay type: biochemical; conditions: 15 μM ATP, 30 min at 30 °C, triplicate; >10 = less than 50% inhibition at 10 µM
# [3] = target: CK1δ/ε; test: CK1δ/ε in vitro kinase assay (CK1-specific peptide substrate); assay type: biochemical, Porcine; conditions: 15 μM ATP, 30 min at 30 °C, triplicate; >10 = less than 50% inhibition at 10 µM
# [4] = target: T1, CDK5/p25 (Homo sapiens, UniProt Q00535); test: CDK5/p25 in vitro kinase assay (histone H1, [γ-33P] ATP); assay type: biochemical
# T1 construct: made in house
# T1 sequence (Q00535 whole entry): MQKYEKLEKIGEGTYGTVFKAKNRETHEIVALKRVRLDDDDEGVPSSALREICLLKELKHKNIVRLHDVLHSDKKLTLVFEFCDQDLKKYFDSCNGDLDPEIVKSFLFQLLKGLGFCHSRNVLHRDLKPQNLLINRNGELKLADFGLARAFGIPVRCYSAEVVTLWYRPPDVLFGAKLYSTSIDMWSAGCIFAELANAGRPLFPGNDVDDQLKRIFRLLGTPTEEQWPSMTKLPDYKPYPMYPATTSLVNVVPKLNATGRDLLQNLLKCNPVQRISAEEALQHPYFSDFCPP
# T1 sequence (Q15078 99-307 partner limits assumed): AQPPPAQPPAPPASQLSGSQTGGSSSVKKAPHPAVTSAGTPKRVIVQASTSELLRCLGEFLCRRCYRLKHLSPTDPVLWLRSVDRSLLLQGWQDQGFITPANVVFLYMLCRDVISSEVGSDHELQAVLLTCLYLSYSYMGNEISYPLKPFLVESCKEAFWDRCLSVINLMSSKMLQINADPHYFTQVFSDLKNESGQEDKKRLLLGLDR
# [5] = target: GSK-3α/β; test: GSK-3α/β in vitro kinase assay (GS-1 peptide); assay type: biochemical, Porcine; conditions: 15 μM ATP, 30 min at 30 °C, triplicate; >10 = less than 50% inhibition at 10 µM
# [6] = 15 μM ATP, 30 min at 30 °C, triplicate, >10 = less than 50% inhibition at 10 µM
Molecule,IC50 [1],IC50 [2],IC50 [3] [µM],IC50 [4] [µM],IC50 [5] [µM],"IC50 [4, 6] [µM]"
"N/C(=N\CCN1CCCCC1)c1nc2ccc3ncn(C4CC4)c(=O)c3c2s1 [Compound 17d, (Z)-8-Cyclopropyl-9-oxo-N′-[2-(piperidin-1-yl)ethyl]-8,9-dihydrothiazolo[5,4-f]quinazoline-2-carboximidamide]",2.1 µM,2.9 µM,> 10,> 10,3.9,–
"N=C(NCc1ccccc1)c1nc2ccc3ncn(C4CC4)c(=O)c3c2s1 [Compound 17a, N-Benzyl-8-cyclopropyl-9-oxo-8,9-dihydrothiazolo[5,4-f]quinazoline-2-carboximidamide]",1 µM,0.67 µM,> 10,> 10,0.4,–
"N/C(=N\CCN1CCOCC1)c1nc2ccc3ncn(C4CC4)c(=O)c3c2s1 [Compound 17c, (Z)-8-Cyclopropyl-N′-(2-morpholinoethyl)-9-oxo-8,9-dihydrothiazolo[5,4-f]quinazoline-2-carboximidamide]",2.3 µM,3.2 µM,> 10,> 10,2.8,–
"CN(C)CC/N=C(\N)c1nc2ccc3ncn(C4CC4)c(=O)c3c2s1 [Compound 17b, (Z)-8-Cyclopropyl-N′-[2-(dimethylamino)ethyl]-9-oxo-8,9-dihydrothiazolo[5,4-f]quinazoline-2-carboximidamide]",0.29 µM,4.4 µM,> 10,> 10,1.1,–
"O=c1c2c(ccc3nc(Nc4cccnc4)sc32)ncn1C1CC1 [Compound 8g, 8-Cyclopropyl-2-(pyridin-3-ylamino)thiazolo[5,4-f]quinazolin-9(8H)-one]",1.7 µM,> 10 µM,> 10,> 10,≥ 10,–
"CN(C)CCNc1nc2ccc3ncn(C4CC4)c(=O)c3c2s1 [Compound 14b, 8-Cyclopropyl-2-([2-(dimethylamino)ethyl]amino)thiazolo[5,4-f]quinazolin-9(8H)-one]",> 10 µM,> 10 µM,> 10,> 10,≥ 10,–
"O=c1c2c(ccc3nc(NCCN4CCCCC4)sc32)ncn1C1CC1 [Compound 14c, 8-Cyclopropyl-2-([2-(piperidin-1-yl)ethyl]amino)thiazolo[5,4-f]quinazolin-9(8H)-one]",> 10 µM,> 10 µM,> 10,–,≥ 10,> 10
"COc1ccc2c(c1)[nH]c1c(C)nccc12 [Harmine, reference compound]",–,–,1.5,–,> 10,–
"8-Cyclopropyl-2-(piperidin-1-yl)thiazolo[5,4-f]quinazolin-9(8H)-one [Compound 14f]",> 10 µM,> 10 µM,> 10,–,≥ 10,> 10
"O=c1c2c(ccc3nc(NCc4ccccc4)sc32)ncn1C1CC1 [Compound 14a, 2-(Benzylamino)-8-cyclopropylthiazolo[5,4-f]quinazolin-9(8H)-one]",3.4 µM,> 10 µM,> 10,> 10,> 10,–
"O=c1c2c(ccc3nc(NCCN4CCOCC4)sc32)ncn1C1CC1 [Compound 14d, 8-Cyclopropyl-2-[(2-morpholinoethyl)amino]thiazolo[5,4-f]quinazolin-9(8H)-one]",8.1 µM,8.2 µM,> 10,> 10,≥ 10,–
"N=C(c1nc2ccc3ncn(C4CC4)c(=O)c3c2s1)N1CCCCC1 [Compound 17f, 8-Cyclopropyl-2-[imino(piperidin-1-yl)methyl]thiazolo[5,4-f]quinazolin-9(8H)-one]",0.61 µM,0.82 µM,> 10,–,0.49,> 10
"O=c1c2c(ccc3nc(Nc4ccccc4)sc32)ncn1C1CC1 [Compound 8a, 8-Cyclopropyl-2-(phenylamino)thiazolo[5,4-f]quinazolin-9(8H)-one]",3.4 µM,> 10 µM,> 10,> 10,≥ 10,–
"O=c1c2cc(Nc3nc4ccccc4s3)ccc2ncn1C1CC1 [Compound 10a, 3-Cyclopropyl-6-[(benzo[d]thiazol-2-yl)amino]quinazolin-4(3H)-one]",5.2 µM,4.8 µM,> 10,> 10,≥ 10,–
"COc1cc2nc(Nc3ccc4ncn(C5CC5)c(=O)c4c3)sc2cc1OC [Compound 10l, 3-Cyclopropyl-6-((5,6-dimethoxybenzo[d]thiazol-2-yl)amino)quinazolin-4(3H)-one]",> 10 µM,> 10 µM,> 10,> 10,≥ 10,–
"O=c1c2c(ccc3nc(N4CCCCC4)sc32)ncn1C1CC1 [Compound 14e, 8-Cyclopropyl-2-(piperidin-1-yl)thiazolo[5,4-f]quinazolin-9(8H)-one]",5.3 µM,> 10 µM,> 10,> 10,≥ 10,–
"N=C(c1nc2ccc3ncn(C4CC4)c(=O)c3c2s1)N1CCOCC1 [Compound 17e, 8-Cyclopropyl-2-[imino(morpholino)methyl]thiazolo[5,4-f]quinazolin-9(8H)-one]",0.38 µM,0.14 µM,1.9,–,0.23,> 10
"CN(C)c1ccc(Nc2nc3ccc4ncn(C5CC5)c(=O)c4c3s2)cc1 [Compound 8j, 8-Cyclopropyl-2-([4-(dimethylamino)phenyl]amino)thiazolo[5,4-f]quinazolin-9(8H)-one]",1.3 to 7.3 µM and 1.3 µM,1.3 to 7.3 µM and 2 µM,> 10,> 10,–,–
